Reference: publication PMC9182199, “Borylated 2,3,4,5-Tetrachlorophthalimide and Their 2,3,4,5-Tetrachlorobenzamide Analogues: Synthesis, Their Glycosidase Inhibition and Anticancer Properties in View to Boron Neutron Capture Therapy” (Molecules, 2022)
Where two headings read alike, the source gives them in different places.

Key:
A431 = assay: MTT cell growth inhibition: A431; assay type: cell-based; settings: A431 skin carcinoma; for GI50 / inhibition at 25 µM: Homo sapiens; for GI50: A-431, read-out: GI50 = Concentration (µM) that inhibits cell growth by 50%, dose response; for inhibition at 25 µM: A-431, read-out: Percentage (%) Cell Growth Inhibition in response to 25 µM of Drug; for inhibition at 25 µM / Percentage (%) Cell Growth Inhibition in response to 25 µM of Drug: 72 h, MTT
Method: (§1) All test agents were prepared as stock solutions (20 mM) in dimethyl sulfoxide (DMSO) and stored at −20 °C. Cell lines used in the study included HT29 (colorectal carcinoma); U87, SJ-G2, (glioblastoma); MCF-7, (breast carcinoma); A2780 (ovarian carcinoma); H460 (lung carcinoma); A431 (skin carcinoma); Du145 (prostate carcinoma); BE2-C (neuroblastoma); MiaPaCa-2 (pancreatic carcinoma); and SMA560 (spontaneous murine astrocytoma), together with the one non-tumour-derived normal breast cell line (MCF10A). All cell lines were incubated in a humidified atmosphere 5% CO2 at 37 °C. The cancer cell lines were maintained in Dulbecco’s modified Eagle’s medium (DMEM; Sigma, Australia) supplemented with foetal bovine serum (10%), sodium pyruvate (10 mM), penicillin (100 IUmL^−1), streptomycin (100 µg mL^−1) and L-glutamine (2 mM).
(§2) Growth inhibition was determined by plating cells in duplicate in medium (100 µL) at a density of 2500–4000 cells per well in 96-well plates. On day 0 (24 h after plating), when the cells were in logarithmic growth, medium (100 µL) with or without the test agent was added to each well. After 72 h drug exposure, growth inhibitory effects were evaluated using the MTT (3-(4,5-dimethyltiazol-2-yl)-2,5-diphenyltetrazolium bromide) assay and absorbance read at 540 nm. The percentage growth inhibition was calculated at a fixed concentration of 25 µM, based on the difference between the optical density values on day 0 and those at the end of drug exposure. Each data point is the mean ± the standard error of the mean (SEM) calculated from three replicates which were performed on separate occasions and separate cell line passages.

[1] = test system: bovine kidney N-acetyl-β-glucosaminidase; assay: Glycosidase inhibition, laboratory 2: N-acetyl-β-glucosaminidase; assay type: biochemical; settings: water
Method: (§3) All enzymes and para-nitrophenyl substrates were purchased from Sigma. Enzymes were assayed at 27 °C in 0.1 M citric acid/0.2 M disodium hydrogen phosphate buffers at the optimum pH for the enzyme. The incubation mixture consisted of 10 μL enzyme solution, 10 μL of 1 mg/mL aqueous solution of extract and 50 μL of the appropriate 5 mM para-nitrophenyl substrate made up in buffer at the optimum pH for the enzyme. The reactions were stopped by addition of 70 μL 0.4 M glycine (pH 10.4) during the exponential phase of the reaction, which had been determined at the beginning using uninhibited assays in which water replaced inhibitor. Final absorbances were read at 405 nm using a Versamax microplate reader (Molecular Devices). Assays were carried out in triplicate, and the values given are means of the three replicates per assay. All reactions run in water.

E. coli β-glucuronidase = biological target: T1, E. coli β-glucuronidase (Escherichia coli, UniProt P05804); assay: Glycosidase inhibition, laboratory 1: E. coli β-glucuronidase; assay type: biochemical; settings: for inhibition at 10 µM: read-out: inhibition % at 10 μM; for inhibition at 100 µM: read-out: inhibition % at 100 μM
T1 construct: purchased Sigma-Aldrich Co
T1 sequence (P05804 whole entry): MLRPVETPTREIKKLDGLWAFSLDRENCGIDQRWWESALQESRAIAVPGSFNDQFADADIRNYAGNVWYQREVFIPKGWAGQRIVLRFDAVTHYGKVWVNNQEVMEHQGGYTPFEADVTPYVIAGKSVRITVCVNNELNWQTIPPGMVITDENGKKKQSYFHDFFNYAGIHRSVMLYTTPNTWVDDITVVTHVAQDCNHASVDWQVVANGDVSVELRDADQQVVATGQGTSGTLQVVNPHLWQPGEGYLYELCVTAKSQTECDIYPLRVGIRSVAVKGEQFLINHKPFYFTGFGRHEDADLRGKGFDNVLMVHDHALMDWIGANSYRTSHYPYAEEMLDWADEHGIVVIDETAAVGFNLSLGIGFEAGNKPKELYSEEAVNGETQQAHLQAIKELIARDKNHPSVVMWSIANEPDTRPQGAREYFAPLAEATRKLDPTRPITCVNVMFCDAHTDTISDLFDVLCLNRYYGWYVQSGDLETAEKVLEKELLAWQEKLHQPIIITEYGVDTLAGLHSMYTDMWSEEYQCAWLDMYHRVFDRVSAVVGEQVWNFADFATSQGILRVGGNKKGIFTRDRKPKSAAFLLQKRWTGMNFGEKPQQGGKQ
Source text: (§4) The enzymes α-glucosidase (from yeast), β-glucosidases (from almond and bovine liver), α-galactosidase (from coffee beans), β-galactosidase (from bovine liver), α-mannosidase (from Jack bean), β-mannosidase (from snail), α-L-rhamnosidase (from Penicillium decumbens), α-L-fucosidase (from bovine kidney), trehalase (from porcine kidney), β-glucuronidases (from E. coli and bovine liver), amyloglucosidase (from A. niger), para-nitrophenyl glycosides, and various disaccharides were purchased from Sigma-Aldrich Co (St Louis, MO, USA).
(§5) Brush border membranes were prepared from the rat small intestine according to the method of Kessler et al. and were assayed at pH 6.8 for rat intestinal maltase using maltose. For rat intestinal maltase, porcine kidney trehalase, and A. niger amyloglucosidase activities, the reaction mixture contained 25 mM maltose and the appropriate amount of enzyme, and the incubations were performed for 10–30 min at 37 °C. The reaction was stopped by heating at 100 °C for 3 min. After centrifugation (600× g; 10 min), the resulting reaction mixture was added to the Glucose CII-test Wako (Wako Pure Chemical Ind., Osaka, Japan). The absorbance at 505 nm was measured to determine the amount of the released D-glucose. Other glycosidase activities were determined using an appropriate para-nitrophenyl glycoside as substrate at the optimum pH of each enzyme. The reaction mixture contained 2 mM of the substrate and the appropriate amount of enzyme. The reaction was stopped by addition of 400 mM Na2CO3. The released para-nitrophenol was measured spectrometrically at 400 nm. All reactions run in methanol.

BE2-C = assay: MTT cell growth inhibition: BE2-C; assay type: cell-based; settings: BE2-C neuroblastoma, 72 h; for inhibition at 25 µM: Homo sapiens, BE(2)-C, read-out: Percentage (%) Cell Growth Inhibition in response to 25 µM of Drug
Method: as §1, §2

snail β-mannosidase = assay: Glycosidase inhibition, laboratory 1: snail β-mannosidase; assay type: biochemical; settings: methanol
Source text: as §4, §5

Bacillus α-glucosidase = assay: Glycosidase inhibition, laboratory 2: Bacillus α-glucosidase; assay type: biochemical; settings: water
Method: as §3

Jack bean α-mannosidase = biological target: T2, Jack bean α-mannosidase (Canavalia ensiformis, UniProt C0HJB3); assay: Glycosidase inhibition, laboratory 1: Jack bean α-mannosidase; assay type: biochemical; settings: methanol
T2 construct: purchased Sigma-Aldrich Co
T2 sequence (C0HJB3 1-981): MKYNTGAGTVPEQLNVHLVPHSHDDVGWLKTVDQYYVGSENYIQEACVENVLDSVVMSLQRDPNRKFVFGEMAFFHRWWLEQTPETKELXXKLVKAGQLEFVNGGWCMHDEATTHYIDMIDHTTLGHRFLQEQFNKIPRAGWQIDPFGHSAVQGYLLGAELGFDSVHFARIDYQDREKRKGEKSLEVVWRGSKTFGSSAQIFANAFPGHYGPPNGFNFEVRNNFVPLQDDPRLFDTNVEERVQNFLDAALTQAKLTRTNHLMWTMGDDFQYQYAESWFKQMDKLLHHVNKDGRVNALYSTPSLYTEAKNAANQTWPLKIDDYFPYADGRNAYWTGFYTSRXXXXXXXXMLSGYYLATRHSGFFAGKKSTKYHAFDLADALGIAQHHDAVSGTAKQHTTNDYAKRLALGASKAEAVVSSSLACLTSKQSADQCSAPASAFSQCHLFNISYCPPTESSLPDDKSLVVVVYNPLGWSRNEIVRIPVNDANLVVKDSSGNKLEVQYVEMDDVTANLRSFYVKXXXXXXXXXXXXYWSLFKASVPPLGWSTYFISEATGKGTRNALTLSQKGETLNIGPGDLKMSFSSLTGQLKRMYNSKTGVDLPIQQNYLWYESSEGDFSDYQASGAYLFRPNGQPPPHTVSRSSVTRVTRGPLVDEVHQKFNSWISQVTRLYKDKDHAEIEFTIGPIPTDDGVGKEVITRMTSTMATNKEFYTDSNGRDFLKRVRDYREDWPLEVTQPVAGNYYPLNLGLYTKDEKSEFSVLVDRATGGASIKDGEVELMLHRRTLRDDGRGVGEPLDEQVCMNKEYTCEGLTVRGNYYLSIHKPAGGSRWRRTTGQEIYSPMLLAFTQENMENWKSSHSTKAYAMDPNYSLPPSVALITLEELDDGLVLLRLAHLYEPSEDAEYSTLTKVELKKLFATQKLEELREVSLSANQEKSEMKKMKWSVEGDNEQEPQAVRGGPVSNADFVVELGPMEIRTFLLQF
Source text: as §4, §5

[2] = E. coli β-glucuronidase, 100 μM, methanol

Compound	GI50 (A431)	inhibition at 25 µM (A431)	% inhibition at ~400 μM [1]	inhibition at 25 µM (BE2-C)	% inhibition at ~400 μM (Bacillus α-glucosidase)	inhibition % at 100 μM (snail β-mannosidase)	inhibition at 100 µM (Jack bean α-mannosidase; 100 μM)	further results
CC1(C)OB(c2cccc(CN3C(=O)c4c(Cl)c(Cl)c(Cl)c(Cl)c4C3=O)c2)OC1(C)C [meta 3, 4,5,6,7-Tetrachloro-2-(3-(4,4,5,5-tetramethyl-1,3,2-dioxaborolan-2-yl)benzyl)isoindoline-1,3-dione]	28 ± 0.85 µM	48 ± 3%	17.1%	45 ± 2%	31.7%			inhibition at 10 µM (E. coli β-glucuronidase): 6.1%; inhibition % at 10 μM (snail β-mannosidase): ^cNI ^d (1.1%); inhibition at 10 µM (Jack bean α-mannosidase): 2.7%
CC1(C)OB(c2cccc(NC(=O)c3cc(Cl)c(Cl)c(Cl)c3Cl)c2)OC1(C)C [meta 5, 2,3,4,5-tetrachloro-N-(3-(4,4,5,5-tetramethyl-1,3,2-dioxaborolan-2-yl)phenyl)benzamide]		9 ± 9%	30.6%	3 ± 4%	54.1%	^aNI ^b (39.1%)	7.6%	IC50 (E. coli β-glucuronidase; E. coli β-glucuronidase, methanol): 932 µM
CC1(C)OB(c2ccccc2CNC(=O)c2cc(Cl)c(Cl)c(Cl)c2Cl)OC1(C)C [ortho 8, 2,3,4,5-tetrachloro-N-(2-(4,4,5,5-tetramethyl-1,3,2-dioxaborolan-2-yl)benzyl)benzamide]		< 0%	28.3%	2 ± 5%	23.7%	^aNI ^b (39%)	12.5%	inhibition at 100 µM (E. coli β-glucuronidase): 41.7%
CC1(C)OB(c2ccccc2NC(=O)c2cc(Cl)c(Cl)c(Cl)c2Cl)OC1(C)C [ortho 5, 2,3,4,5-Tetrachloro-N-(2-(4,4,5,5-tetramethyl-1,3,2-dioxaborolan-2-yl)phenyl)benzamide]	11 ± 1.8 µM	100 ± 2%	28.8%	> 100%	14.4%			inhibition at 10 µM (E. coli β-glucuronidase; E. coli β-glucuronidase, 10 μM, methanol): 3.8%; inhibition % at 10 μM (snail β-mannosidase): ^cNI ^d (0%); inhibition at 10 µM (Jack bean α-mannosidase): 3.4%
CC1(C)OB(c2ccc(CN3C(=O)c4c(Cl)c(Cl)c(Cl)c(Cl)c4C3=O)cc2)OC1(C)C [para 3, 4,5,6,7-Tetrachloro-2-(4-(4,4,5,5-tetramethyl-1,3,2-dioxaborolan-2-yl)benzyl)isoindoline-1,3-dione]	18 ± 2.3 µM	85 ± 8%	8.3%	> 100%	17.9%	^aNI ^b (0%)	0%	inhibition at 100 µM (E. coli β-glucuronidase): 2.2%
N[C@@H](Cc1ccc(B(O)O)cc1)C(=O)O [BPA, 4-borono-L-phenylalanine, reference compound]		4 ± 6%		13 ± 10%		^cNI ^d (2.1%)		% inhibition at ~400 μM ([1]; 400 µM): 6.7%; % inhibition at ~400 μM (Bacillus α-glucosidase; 400 µM): 19.9%
N[C@@H](Cc1ccc(B(O)O)cc1)C(=O)O [^10B-BPA, reference compound]						^cNI ^d (0.3%)		Percentage (%) Cell Growth Inhibition in response to 25 µM of Drug (A431): 4 ± 4%; % inhibition at ~400 μM ([1]; 400 µM): 6.3%; inhibition % at 100 μM (E. coli β-glucuronidase; [2]): ^cNI ^d (2.4%); Percentage (%) Cell Growth Inhibition in response to 25 µM of Drug (BE2-C): 10 ± 6%; % inhibition at ~400 μM (Bacillus α-glucosidase; 400 µM): 19.5%; inhibition % at 100 μM (Jack bean α-mannosidase; 100 μM): ^cNI ^d (0%)
Borocaptate sodium [BSH, reference compound]			37.1%		48.1%			Percentage (%) Cell Growth Inhibition in response to 25 µM of Drug (A431): <0%; inhibition % at 1000 μM (E. coli β-glucuronidase; E. coli β-glucuronidase, 1000 μM, methanol): ^aNI ^b (6%); Percentage (%) Cell Growth Inhibition in response to 25 µM of Drug (BE2-C): 10 ± 6%; inhibition % at 1000 μM (snail β-mannosidase; 1000 μM): ^aNI ^b (19.2%); inhibition % at 1000 μM (Jack bean α-mannosidase; 1000 μM): ^aNI ^b (7.9%)
CC1(C)OB(c2ccc(NC(=O)c3cc(Cl)c(Cl)c(Cl)c3Cl)cc2)OC1(C)C [para 5, 2,3,4,5-tetrachloro-N-(4-(4,4,5,5-tetramethyl-1,3,2-dioxaborolan-2-yl)phenyl)benzamide]		64 ± 4%	20.6%	54 ± 1%	20%	^aNI ^b (30.4%)	19.3%	inhibition at 100 µM (E. coli β-glucuronidase; [2]): 45.5%
